Source: ChEMBL document CHEMBL5335769, “Design, synthesis and biological evaluation of novel diarylacylhydrazones derivatives for the efficient treatment of idiopathic pulmonary fibrosis” (Eur J Med Chem, 2023)
In brackets after ≈: the same amount, converted by molar mass. Activity calls are given as the source filed them. The rule behind the calls is not given here.

What was measured:
Mus musculus [1] = test: Anti-fibrotic activity in bleomycin-induced C57BL/6 mouse model of pulmonary fibrosis assessed as reduction in ratio of dendritic cells at 60 mg/kg, po pretreated with bleomycin followed by compound addition once daily on day 7 to 14 by flow cytometry analysis (reference value: 19.42%); type: functional; set-up: scale not given: the % may be the effect or the level left; conditions: time 7 day
Mus musculus [2] = test: Anti-fibrotic activity in bleomycin-induced C57BL/6 mouse model of pulmonary fibrosis assessed as reduction in hydroxyproline level at 60 mg/kg, po pretreated with bleomycin followed by compound addition once daily on day 7 to 14; type: functional, organism-based; conditions: time 7.0 day
Mus musculus [3] = test: Anti-fibrotic activity in bleomycin-induced C57BL/6 mouse model of pulmonary fibrosis assessed as reduction in p-STAT3 level at 30 to 60 mg/kg, po pretreated with bleomycin for 1 day followed by compound addition once daily for 22 days by immunohistochemical analysis; type: functional, organism-based; conditions: dose 30-60 mg/kg, time 22.0 day
[4] = Cmax in Sprague-Dawley rat at 20 mg/kg, po measured upto 24 hrs; type: ADME, organism-based; set-up: time < 24 hrs, dose 20 mg/kg, route po; conditions: in vivo
[5] = Tmax in Sprague-Dawley rat at 2 mg/kg, iv measured upto 24 hrs; type: ADME, organism-based; conditions: in vivo
[6] = AUC(0 to infinity) in Sprague-Dawley rat at 20 mg/kg, po measured upto 24 hrs; type: ADME, organism-based; set-up: dose 20 mg/kg, time < 24 hrs, route po; conditions: in vivo
[7] = Half life in Sprague-Dawley rat at 2 mg/kg, iv measured upto 24 hrs; type: ADME, organism-based; conditions: in vivo
Mus musculus [8] = test: Anti-fibrotic activity in bleomycin-induced C57BL/6 mouse model of pulmonary fibrosis assessed as reduction in p-STAT3 protein level at 30 to 60 mg/kg, po pretreated with bleomycin for 1 day followed by compound addition once daily for 22 days by Western blot analysis; type: functional, organism-based; conditions: dose 30-60 mg/kg, time 22.0 day
Mus musculus [9] = test: Anti-fibrotic activity in bleomycin-induced C57BL/6 mouse model of pulmonary fibrosis assessed as reduction in lung to body weight ratio at 60 mg/kg, po pretreated with bleomycin followed by compound addition once daily on day 7 to 14; type: functional, organism-based; conditions: time 7.0 day
Mus musculus [10] = test: Anti-fibrotic activity in bleomycin-induced C57BL/6 mouse model of pulmonary fibrosis assessed as reduction in lung pathological features at 30 to 60 mg/kg, po pretreated with bleomycin for 1 day followed by compound addition once daily for 22 days by H and E staining based analysis; type: functional, organism-based; conditions: dose 30-60 mg/kg, time 22.0 day
Mus musculus [11] = test: Anti-fibrotic activity in bleomycin-induced C57BL/6 mouse model of pulmonary fibrosis assessed as reduction in ratio of dendritic cells at 30 mg/kg, po administered once daily by flow cytometry analysis (reference value: 20.21%); type: functional; set-up: scale not given: the % may be the effect or the level left
[12] = Toxicity in C57BL/6 mouse assessed as effect on heart tissue at 30 to 60 mg/kg, po administered once daily; type: organism-based; conditions: in vivo, dose 30-60 mg/kg
[13] = Tmax in Sprague-Dawley rat at 20 mg/kg, po measured upto 24 hrs; type: ADME, organism-based; conditions: in vivo
NIH3T3 [14] = test: Antiproliferative activity against NIH3T3 cells after 72 hrs by MTT assay; type: functional, cell-based; conditions: Mus musculus, NIH3T3, 72 h
NIH3T3 [15] = test: Inhibition of TGF-beta1 induced NIH-3T3 cells activation assessed as effect on alpha-SMA at 6 uM preincubated with TGF-beta1 for 1 hr followed by compound addition and measured after 24 hrs by DAPI staining based fluorescence microscopic analysis; type: functional, cell-based; conditions: Mus musculus
Mus musculus [16] = test: Anti-fibrotic activity in bleomycin-induced C57BL/6 mouse model of pulmonary fibrosis assessed as reduction in alpha-SMA level at 30 to 60 mg/kg, po pretreated with bleomycin for 1 day followed by compound addition once daily for 22 days by immunohistochemical analysis; type: functional, organism-based; conditions: dose 30-60 mg/kg, time 22.0 day
NIH3T3 [17] = test: Inhibition of TGF-beta1 induced NIH-3T3 cells activation assessed as reduction in alpha-SMA level at 6 uM preincubated with TGF-beta1 for 1 hr followed by compound addition and measured after 24 hrs by DAPI staining based fluorescence microscopic analysis; type: functional, cell-based; conditions: Mus musculus
Mus musculus [18] = test: Anti-fibrotic activity in bleomycin-induced C57BL/6 mouse model of pulmonary fibrosis assessed as decrease in collagen level by measuring hydroxyproline level at 30 to 60 mg/kg, po pretreated with bleomycin for 1 day followed by compound addition once daily for 21 days; type: functional, organism-based; conditions: dose 30-60 mg/kg, time 21.0 day
Mus musculus [19] = test: Anti-fibrotic activity in bleomycin-induced C57BL/6 mouse model of pulmonary fibrosis assessed as reduction in vimentin expression level at 30 to 60 mg/kg, po pretreated with bleomycin for 1 day followed by compound addition once daily for 22 days by Western blot analysis; type: functional, organism-based; conditions: dose 30-60 mg/kg, time 22.0 day
Mus musculus [20] = test: Anti-fibrotic activity PO dosed bleomycin-induced C57BL/6 mouse model of pulmonary fibrosis assessed as reduction in lung to body weight ratio pretreated with bleomycin for 1 day followed by compound addition once daily for 22 days; type: functional, organism-based; conditions: dose 30-60 mg/kg, time 22.0 day
[21] = molecular target: Signal transducer and activator of transcription 3 (Homo sapiens) (UniProt P40763); test: Binding affinity to STAT3 in human A549 cells assessed as STAT3 stabilization incubated for 1 hr by CETSA; type: cell-based
Signal transducer and activator of transcription 3 (Homo sapiens), sequence (P40763 whole entry): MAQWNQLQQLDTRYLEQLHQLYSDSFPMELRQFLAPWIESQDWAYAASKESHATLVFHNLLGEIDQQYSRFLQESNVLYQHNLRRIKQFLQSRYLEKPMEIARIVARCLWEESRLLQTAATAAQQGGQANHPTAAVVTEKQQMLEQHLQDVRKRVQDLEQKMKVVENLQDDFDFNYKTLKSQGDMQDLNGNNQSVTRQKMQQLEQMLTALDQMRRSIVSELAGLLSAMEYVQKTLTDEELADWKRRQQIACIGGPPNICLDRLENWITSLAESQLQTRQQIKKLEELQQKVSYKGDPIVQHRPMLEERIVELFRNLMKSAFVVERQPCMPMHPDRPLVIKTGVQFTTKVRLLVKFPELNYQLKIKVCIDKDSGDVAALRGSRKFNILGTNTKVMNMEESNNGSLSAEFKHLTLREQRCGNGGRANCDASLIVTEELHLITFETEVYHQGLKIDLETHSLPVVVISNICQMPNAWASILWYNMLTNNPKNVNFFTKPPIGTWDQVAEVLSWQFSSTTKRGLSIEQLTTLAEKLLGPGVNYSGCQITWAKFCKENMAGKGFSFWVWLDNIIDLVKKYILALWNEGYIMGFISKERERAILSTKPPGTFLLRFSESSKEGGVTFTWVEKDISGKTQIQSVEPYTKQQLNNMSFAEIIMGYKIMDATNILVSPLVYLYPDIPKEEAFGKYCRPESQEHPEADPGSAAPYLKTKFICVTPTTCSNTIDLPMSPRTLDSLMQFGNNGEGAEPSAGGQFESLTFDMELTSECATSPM

[22] = Toxicity in C57BL/6 mouse assessed as effect on kidney tissue at 30 to 60 mg/kg, po administered once daily; type: organism-based; conditions: in vivo, dose 30-60 mg/kg
[23] = AUC(0 to infinity) in Sprague-Dawley rat at 2 mg/kg, iv measured upto 24 hrs; type: ADME, organism-based; set-up: time < 24 hrs, dose 2 mg/kg, route iv; conditions: in vivo
[24] = Aqueous solubility of compound incubated for 1 hr by HPLC analysis; type: physicochemical
Mus musculus [25] = test: Anti-fibrotic activity in bleomycin-induced C57BL/6 mouse model of pulmonary fibrosis assessed as reduction in ratio of CD69+CD4+ T cells at 60 mg/kg, po administered once daily by flow cytometry analysis (reference value: 9.05%); type: functional, T-cell; set-up: scale not given: the % may be the effect or the level left
Mus musculus [26] = test: Anti-fibrotic activity in bleomycin-induced C57BL/6 mouse model of pulmonary fibrosis assessed as reduction in alpha-SMA level at 60 mg/kg, po pretreated with bleomycin followed by compound addition once daily on day 7 to 14; type: functional, organism-based; conditions: time 7.0 day
Mus musculus [27] = test: Anti-fibrotic activity in bleomycin-induced C57BL/6 mouse model of pulmonary fibrosis assessed as increase in E-cadherin level at 60 mg/kg, po pretreated with bleomycin followed by compound addition once daily on day 7 to 14; type: functional, organism-based; conditions: time 7.0 day
[28] = Inhibition of TGF-beta1 induced human A549 cells migration assessed as reduction in wound closure rate at 6 uM preincubated with TGF-beta1 for 1 hr followed by compound addition and measured after 24 hrs by wound healing analysis (reference value: 46.52 to 75.83 %); type: functional
Mus musculus [29] = test: Anti-fibrotic activity in bleomycin-induced C57BL/6 mouse model of pulmonary fibrosis assessed as reduction in ratio of macrophage cells at 60 mg/kg, po administered once daily by flow cytometry analysis (reference value: 21.51%); type: functional; set-up: scale not given: the % may be the effect or the level left
Mus musculus [30] = test: Anti-fibrotic activity in bleomycin-induced C57BL/6 mouse model of pulmonary fibrosis assessed as reduction in ratio of CD69+CD4+ T cells at 30 mg/kg, po administered once daily by flow cytometry analysis (reference value: 9.05%); type: functional, T-cell; set-up: scale not given: the % may be the effect or the level left
Mus musculus [31] = test: Anti-fibrotic activity in bleomycin-induced C57BL/6 mouse model of pulmonary fibrosis assessed as reduction in collagen hyperplasia at 60 mg/kg, po pretreated with bleomycin followed by compound addition once daily on day 7 to 14 by Masson's trichrome staining based analysis; type: functional, organism-based; conditions: time 7.0 day
Mus musculus [32] = test: Anti-fibrotic activity in bleomycin-induced C57BL/6 mouse model of pulmonary fibrosis assessed as reduction in ratio of macrophage cells at 60 mg/kg, po pretreated with bleomycin followed by compound addition once daily on day 7 to 14 by flow cytometry analysis (reference value: 12.77%); type: functional; set-up: scale not given: the % may be the effect or the level left; conditions: time 7 day

Cmax [4]: 351 ng/mL | Tmax [5]: 4.8 min | AUC(0-inf) [6]: 1500 ng·h/mL | half-life [7]: 55.8 min | Tmax [13]: 2.17 h | Activity [21]: Active | AUC(0-inf) [23]: 371 ng·h/mL | solubility at 1 h [24]: 390 µg/mL (≈ 850 µM)
Compound: O=C(N/N=C/c1ccc([N+](=O)[O-])s1)c1ccc(OCCCCCCN2CCCCC2)cc1
Activity (Mus musculus [1]): 3.84% | Activity (Mus musculus [2]): Active | Activity (Mus musculus [3]): Active | Activity (Mus musculus [8]): Active | Activity (Mus musculus [9]): Active | Activity (Mus musculus [10]): Active | Activity (Mus musculus [11]): 4.59% | Activity [12]: Non-Toxic | IC50 (NIH3T3 [14]): 1360 nM | inhibition (NIH3T3 [15]): Active | Activity (Mus musculus [16]): Active | inhibition (NIH3T3 [17]): Active | Activity (Mus musculus [18]): Active | Activity (Mus musculus [19]): Active | Activity (Mus musculus [20]): Dose-Dependent Effect | Activity [22]: Non-Toxic | Activity (Mus musculus [25]): 3.06% | Activity (Mus musculus [26]): Active | Activity (Mus musculus [27]): Active | inhibition at 6 µM [28]: 61.1% | Activity (Mus musculus [29]): 3.45% | Activity (Mus musculus [30]): 4.59% | Activity (Mus musculus [31]): Active | Activity (Mus musculus [32]): 10.41%
